In the assay the target is T1, p38alpha (Homo sapiens, UniProt Q16539).
T1 construct: purchased Invitrogen PV3304
As to the kind of experiment: P38Alpha enzyme inhibition assay (Alphascreen kinase activity assay). As to conditions: 100 pM p38alpha, 250 μM ATP, 2 hours pre-incubation at 25° C., read-out: p38α inhibition (IC50 values). The assay is classed as biochemical. On the procedure:
P38Alpha Enzyme Inhibition Assay.
The inhibitory activity of compounds was determined using an Alphascreen® (Perkin Elmer) based kinase activity assay. Kinase reactions consisted of 25 mM HEPES pH 7.5, 10 mM MgCl2, 100 μM Na3VO4, 2 mM DTT, 0.05 mg/ml Tween 20, 100 pM p38alpha (Invitrogen, PV3304), 1% DMSO and 0.3 μg/ml ATF-2 fusion protein (New England Biolabs, 9224). Compounds were incubated under these conditions for 2 hours, at 25° C., prior to the initiation of the kinase activity by the addition of the 250 μM ATP. Reaction volumes were 20 uL. After 1 hr at 25° C. reactions were stopped by the adding 10 uL of 25 mM HEPES pH 7.5 containing 62.5 mM EDTA, 0.05% Triton X-100, 10% BSA and 0.83 ng/uL anti-phospho-ATF2 antibody (Abeam, ab28812). Detection was performed by measuring luminescence following the addition of Alphascreen Donor beads (Perkin Elmer 6765300) and Protein A Alphascreen Acceptor beads (Perkin Elmer 6760137), both at a final concentration of 20 ug/ml. IC50 values were determined from concentration-response curves.

Where a name gives a salt, the structure may show the parent alone. A value given as a limit tells only on which side of the number the result lay.

T1 sequence (Q16539 whole entry): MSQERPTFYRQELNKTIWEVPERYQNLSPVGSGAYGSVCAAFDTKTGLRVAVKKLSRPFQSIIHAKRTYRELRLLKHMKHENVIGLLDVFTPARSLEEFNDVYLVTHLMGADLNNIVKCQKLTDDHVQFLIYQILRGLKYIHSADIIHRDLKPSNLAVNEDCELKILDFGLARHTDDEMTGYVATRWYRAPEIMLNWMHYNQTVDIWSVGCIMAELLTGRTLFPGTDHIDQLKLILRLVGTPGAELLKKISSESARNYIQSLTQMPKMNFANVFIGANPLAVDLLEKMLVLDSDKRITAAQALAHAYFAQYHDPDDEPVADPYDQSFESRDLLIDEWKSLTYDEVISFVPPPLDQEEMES

`C[C@@H]1CCC[C@H](C)N1c1nnc2ccc(O[C@@H]3CC[C@H](NC(=O)Nc4cc(C(C)(C)C)nn4-c4cccc(CN5CCCC5)c4)c4ccccc43)cn12` [Example 144, 1-[5-tert-Butyl-2-(3-pyrrolidin-1-ylmethyl-phenyl)-2H-pyrazol-3-yl]-3-{(1S,4R)-4-[3-((2S,6R)-2,6-dimethyl-piperidin-1-yl)-[1,2,4]triazolo[4,3-a]pyridin-6-yloxy]-1,2,3,4-tetrahydro-naphthalen-1-yl}-urea formate salt]: the IC50 was less than 10 nM.
`CN(C)CCOc1cccc(-n2nc(C(C)(C)C)cc2NC(=O)N[C@H]2CC[C@@H](Oc3ccc4nnc(N5CCCCC56CC6)n4c3)c3ccccc32)c1` [Example 148, 1-{(1S,4R)-4-[3-(4-Aza-spiro[2.5]oct-4-yl)-[1,2,4]triazolo[4,3-a]pyridin-6-yloxy]-1,2,3,4-tetrahydro-naphthalen-1-yl}-3-{5-tert-butyl-2-[3-(2-dimethylamino-ethoxy)-phenyl]-2H-pyrazol-3-yl}-urea formate salt]: the IC50 is less than 10 nM.
Regarding `C[C@H]1CCCCN1c1nnc2ccc(O[C@@H]3CC[C@H](NC(=O)Nc4cc(C(C)(C)C)nn4-c4cccc(OCCN5CCCC5)c4)c4ccccc43)cn12` [Example 154, 1-{5-tert-Butyl-2-[3-(2-pyrrolidin-1-yl-ethoxy)-phenyl]-2H-pyrazol-3-yl}-3-{(1S,4R)-4-[3-((S)-2-methyl-piperidin-1-yl)-[1,2,4]triazolo[4,3-a]pyridin-6-yloxy]-1,2,3,4-tetrahydro-naphthalen-1-yl}-urea formate salt], the IC50 was less than 10 nM.
To `CCN(CC)CCOc1cccc(-n2nc(C(C)(C)C)cc2NC(=O)N[C@H]2CC[C@@H](Oc3ccc4nnc(N5CCCC[C@@H]5C)n4c3)c3ccccc32)c1` [Example 155, 1-{5-tert-Butyl-2-[3-(2-diethylamino-ethoxy)-phenyl]-2H-pyrazol-3-yl}-3-{(1S,4R)-4-[3-((S)-2-methyl-piperidin-1-yl)-[1,2,4]triazolo[4,3-a]pyridin-6-yloxy]-1,2,3,4-tetrahydro-naphthalen-1-yl}-urea formate salt] belongs less than 10 nM.
On to `C[C@H]1CCCCN1c1nnc2ccc(O[C@@H]3CC[C@H](NC(=O)Nc4cc(C(C)(C)C)nn4-c4cccc(OCCN5CCOCC5)c4)c4ccccc43)cn12` [Example 156, 1-{5-tert-Butyl-2-[3-(2-morpholin-4-yl-ethoxy)-phenyl]-2H-pyrazol-3-yl}-3-{(1S,4R)-4-[3-((S)-2-methyl-piperidin-1-yl)-[1,2,4]triazolo[4,3-a]pyridin-6-yloxy]-1,2,3,4-tetrahydro-naphthalen-1-yl}-urea partial formate salt], for which the IC50 was less than 10 nM.
As to `C[C@H]1CCCCN1c1nnc2ccc(O[C@@H]3CC[C@H](NC(=O)Nc4cc(C(C)(C)C)nn4-c4cccc(OCCN5CCCCC5)c4)c4ccccc43)cn12` [Example 157, 1-{5-tert-Butyl-2-[3-(2-piperidin-1-yl-ethoxy)-phenyl]-2H-pyrazol-3-yl}-3-{(1S,4R)-4-[3-((S)-2-methyl-piperidin-1-yl)-[1,2,4]triazolo[4,3-a]pyridin-6-yloxy]-1,2,3,4-tetrahydro-naphthalen-1-yl}-urea formate salt], the IC50 was less than 10 nM.
For `C[C@H]1CCCCN1c1nnc2ccc(O[C@@H]3CC[C@H](NC(=O)Nc4cc(C(C)(C)C)nn4-c4cccc(OCCN5CCN(C)CC5)c4)c4ccccc43)cn12` [Example 158, 1-(5-tert-Butyl-2-{3-[2-(4-methyl-piperazin-1-yl)-ethoxy]-phenyl}-2H-pyrazol-3-yl)-3-{(1S,4R)-4-[3-((S)-2-methyl-piperidin-1-yl)-[1,2,4]triazolo[4,3-a]pyridin-6-yloxy]-1,2,3,4-tetrahydro-naphthalen-1-yl}-urea formate salt], the IC50 was less than 10 nM.
`C[C@H]1CCCCN1c1nnc2ccc(O[C@@H]3CC[C@H](NC(=O)Nc4cc(C(C)(C)C)nn4-c4cccc(OCCN5CCC(F)CC5)c4)c4ccccc43)cn12` [Example 159, 1-{5-tert-Butyl-2-{3-[2-(4-fluoropiperidin-1-yl)-ethoxy]-phenyl}-2H-pyrazol-3-yl}-3-{(1S,4R)-4-[3-((S)-2-methyl-piperidin-1-yl)-[1,2,4]triazolo[4,3-a]pyridin-6-yloxy]-1,2,3,4-tetrahydro-naphthalen-1-yl}-urea formate salt]: the IC50 is less than 10 nM.
As to `C[C@H]1CCCCN1c1nnc2ccc(O[C@@H]3CC[C@H](NC(=O)Nc4cc(C(C)(C)C)nn4-c4cccc(OCCN5CCCN(C)CC5)c4)c4ccccc43)cn12` [Example 160, 1-(5-tert-Butyl-2-{3-[2-(4-methyl-[1,4]-diazepan-1-yl)-ethoxy]-phenyl}-2H-pyrazol-3-yl)-3-{(1S,4R)-4-[3-((S)-2-methyl-piperidin-1-yl)-[1,2,4]triazolo[4,3-a]pyridin-6-yloxy]-1,2,3,4-tetrahydro-naphthalen-1-yl}-urea formate salt], the IC50 was less than 10 nM.
`C[C@H]1CCCCN1c1nnc2ccc(O[C@@H]3CC[C@H](NC(=O)Nc4cc(C(C)(C)C)nn4-c4cccc(OCCN5C6CCCC5CC6)c4)c4ccccc43)cn12` [Example 162, 1-(2-{3-[2-(8-Aza-bicyclo[3.2.1]oct-8-yl)-ethoxy]-phenyl}-5-tert-butyl-2H-pyrazol-3-yl)-3-{(1S,4R)-4-[3-((S)-2-methyl-piperidin-1-yl)-[1,2,4]triazolo[4,3-a]pyridin-6-yloxy]-1,2,3,4-tetrahydro-naphthalen-1-yl}-urea formate salt]: the IC50 is less than 10 nM.
The figure for `CCN(C)CCOc1cccc(-n2nc(C(C)(C)C)cc2NC(=O)N[C@H]2CC[C@@H](Oc3ccc4nnc(N5CCCC[C@@H]5C)n4c3)c3ccccc32)c1` [Example 163, 1-(5-tert-Butyl-2-{3-[2-(ethyl-methyl-amino)-ethoxy]-phenyl}-2H-pyrazol-3-yl)-3-{(1S,4R)-4-[3-((S)-2-methyl-piperidin-1-yl)-[1,2,4]triazolo[4,3-a]pyridin-6-yloxy]-1,2,3,4-tetrahydro-naphthalen-1-yl}-urea formate salt] is less than 10 nM.
The figure for `COC1CCN(CCOc2cccc(-n3nc(C(C)(C)C)cc3NC(=O)N[C@H]3CC[C@@H](Oc4ccc5nnc(N6CCCC[C@@H]6C)n5c4)c4ccccc43)c2)CC1` [Example 165, 1-(5-tert-Butyl-2-{3-[2-(4-methoxy-piperidin-1-yl-ethoxy]-phenyl}-2H-pyrazol-3-yl)-3-{(1S,4R)-4-[3-((S)-2-methyl-piperidin-1-yl)-[1,2,4]triazolo[4,3-a]pyridin-6-yloxy]-1,2,3,4-tetrahydro-naphthalen-1-yl}-urea formate salt] is less than 10 nM.
With `C[C@H]1CCCCN1c1nnc2ccc(O[C@@H]3CC[C@H](NC(=O)Nc4cc(C(C)(C)C)nn4-c4cccc(OCCN5C6CCC5COC6)c4)c4ccccc43)cn12` [Example 166, 1-(5-tert-Butyl-2-{3-[2-(3-oxa-8-aza-bicyclo[3.2.1]oct-8-yl)-ethoxy]-phenyl}-2H-pyrazol-3-yl)-3-{(1S,4R)-4-[3-((S)-2-methyl-piperidin-1-yl)-[1,2,4]triazolo[4,3-a]pyridin-6-yloxy]-1,2,3,4-tetrahydro-naphthalen-1-yl}-urea formate salt], the IC50 is less than 10 nM.
Take `COC1CCN(Cc2cccc(-n3nc(C(C)(C)C)cc3NC(=O)N[C@H]3CC[C@@H](Oc4ccc5nnc(N6CCCC[C@@H]6C)n5c4)c4ccccc43)c2)CC1` [Example 167, 1-{5-tert-Butyl-2-[3-(4-methoxy-piperidin-1-ylmethyl)-phenyl]-2H-pyrazol-3-yl}-3-{(1S,4R)-4-[3-((S)-2-methyl-piperidin-1-yl)-[1,2,4]triazolo[4,3-a]pyridin-6-yloxy]-1,2,3,4-tetrahydro-naphthalen-1-yl}-urea formate salt]: the 50% inhibitory concentration (IC50) was less than 10 nM.
To `COCCN(C)Cc1cccc(-n2nc(C(C)(C)C)cc2NC(=O)N[C@H]2CC[C@@H](Oc3ccc4nnc(N5CCCC[C@@H]5C)n4c3)c3ccccc32)c1` [Example 168, 1-[5-tert-Butyl-2-(3-{[(2-methoxy-ethyl)-methyl-amino]-methyl}-phenyl)-2H-pyrazol-3-yl]-3-{(1S,4R)-4-[3-((S)-2-methyl-piperidin-1-yl)-[1,2,4]triazolo[4,3-a]pyridin-6-yloxy]-1,2,3,4-tetrahydro-naphthalen-1-yl}-urea formate salt] belongs less than 10 nM; to `C[C@H]1CCCCN1c1nnc2ccc(O[C@@H]3CC[C@H](NC(=O)Nc4cc(C(C)(C)C)nn4-c4cccc(CN5CCC(F)CC5)c4)c4ccccc43)cn12` [Example 169, 1-{5-tert-Butyl-2-[3-(4-fluoro-piperidin-1-ylmethyl)-phenyl]-2H-pyrazol-3-yl}-3-{(1S,4R)-4-[3-((S)-2-methyl-piperidin-1-yl)-[1,2,4]triazolo[4,3-a]pyridin-6-yloxy]-1,2,3,4-tetrahydro-naphthalen-1-yl}-urea formate salt], less than 10 nM.
Regarding `C[C@H]1CCCCN1c1nnc2ccc(O[C@@H]3CC[C@H](NC(=O)Nc4cc(C(C)(C)C)nn4-c4cccc(CN(C)C)c4)c4ccccc43)cn12` [Example 170, 1-[5-tert-Butyl-2-(3-dimethylaminomethyl-phenyl)-2H-pyrazol-3-yl]-3-{(1S,4R)-4-[3-((S)-2-methyl-piperidin-1-yl)-[1,2,4]triazolo[4,3-a]pyridin-6-yloxy]-1,2,3,4-tetrahydro-naphthalen-1-yl}-urea formate salt], the IC50 is less than 10 nM.

The term IC50 denotes the concentration needed to halve the response being measured.

For the origin of these results see patent publication US9315503B2, “Kinase inhibitors” (CHIESI FARMACEUTICI S.p.A., priority 2011, dated 2016).
